Source: patent publication US8425968B2, “Beverage preservative system containing pimaricin-cyclodextrin complex” (PepsiCo., Inc., priority 2009, dated 2013)
≈ marks a conversion by molar mass, not a printed value.

What was measured:
bio-indicator mold [1] = details: reported by the manufacturer of DMDC; cited from earlier work
[2] = tested on: Aspergillus (Pepsi Isolate); test: 16 week mold spore challenge MIC in beverage; format: cell-based, Aspergillus niger; details: pH 3.4, read-out: 16 week incubation MIC (ppm)
Text: (§1) A 2% fruit juice based non-carbonated beverage of pH 3.4 and about 12 Brix was formed by combining the following ingredients.
(§2) The preparation of beverage was divided into two aliquots.
(§3) Each of 24 such preparations was then divided equally across 8 separate tubes making for 192 samples. […] The tubes were sealed in a manner that prohibits moisture evaporation.
(§4) The mold spores employed were obtained from the following organisms. Aspgergillus niger isolate of Pepsi; ATCC strain 90900 (Talaromyces spectabilis), ATCC strain 48441 (Pencillium galbrum), ATCC 24088 (Byssochlamys fulva), ATCC 96468 (Neosartorva fischeri) ATCC strain 96463 (Talaromyces flavus) and ATCC strain ATCC 10512 (Talaromyces flavus var. flavus). Each spore type was present at 20 spores per milliliter.

[3] = tested on: Penicillium glabrum ATCC 48441; test: 16 week mold spore challenge MIC in beverage; format: cell-based; details: ATCC48441, pH 3.4, read-out: 16 week incubation MIC (ppm)
Text: as §1, §2, §3, §4

[4] = tested on: Talaromyces spectabilis ATCC 90900; test: 16 week mold spore challenge MIC in beverage; format: cell-based; details: Paecilomyces variotii, ATCC90900, pH 3.4; read-out: 16 week incubation MIC (ppm)
Text: as §1, §2, §3, §4

[5] = tested on: Byssochlamys fulva ATCC 24088; test: 16 week mold spore challenge MIC in beverage; format: cell-based; details: Paecilomyces fulvus, ATCC 10099 / ATCC 24088, pH 3.4; read-out: 16 week incubation MIC (ppm)
Text: as §2, §3, §4
(§5) The second aliquot of beverage is identical to the 1st aliquot except for the presence of cyclodextrin-pimaricin complex. […] Each of 36 such preparations was then divided equally across 8 separate tubes making for 288 samples. […] The tubes were sealed in a manner that prohibits moisture evaporation.
(§6) The mold spores employed were obtained from the following organisms Paecilomyces puntoni (Pepsi isolate D3), ATCC 36614 (Byssochlamys nieva) ATCC 24088 (Byssochlamys fulva), ATCC 96468 (Neosartorya fischeri) ATCC strain 96463 (Talaromyces flavus) and ATCC strain ATCC 10512 (Talaromyces flavus var. flavus). Each spore type was present initially at 20 spores per milliliter of product. Spores for Byssochlamys nieva were developed at both 25° C. on Potato Dextrose and 30° C. on Malt Extract in order to ensure some variation in the ratio of asci (ascospores) to conidiospores. […]
(§7) One sample remained un-inoculated and served as a negative control. […] These samples served as the positive controls in this test. […]
(§8) After inoculation with spores from various mold, samples were incubated at 25-27° C. for a period of 16 weeks before.
(§9) As outlined previously, two separate aliquots of beverage were formulated, one containing Pimaricin in complex with g-cyclodextrin and one without. Both aliquots contained 30 ppm Cinnamic acid.

[6] = tested on: Neosartorya fischeri ATCC 96468; test: 16 week mold spore challenge MIC in beverage; format: cell-based; details: Aspergillus fischeri, ATCC96468, pH 3.4; read-out: 16 week incubation MIC (ppm)
Text: as §2, §3, §4, §5, §6, §7, §8, §9

[7] = tested on: Talaromyces flavus ATCC 96463; test: 16 week mold spore challenge MIC in beverage; format: cell-based; details: ATCC96463, pH 3.4, read-out: 16 week incubation MIC (ppm)
Text: as §2, §3, §4, §5, §6, §7, §8, §9

[8] = tested on: Talaromyces flavus var. flavus ATCC 10512; test: 16 week mold spore challenge MIC in beverage; format: cell-based; details: ATCC10512, pH 3.4, read-out: 16 week incubation MIC (ppm)
Text: as §2, §3, §4, §5, §6, §7, §8, §9

physchem = format: physicochemical
bio-indicator mold [9] = test: Preservation of beverage for 16 weeks against the array of bio-indicator / spoilage organisms; format: cell-based
Text: As used herein, the terms “preserve,” “preservative,” and “preservation” refer to a food or beverage product protected against or a composition able to stop or completely prevent spoilage of a product that is the result of the growth of spoilage microorganisms for a period of at least 16 weeks. This period is in keeping with the time required to transport a beverage product from location of manufacture, through distribution channels, into the hand of the consumer. Absence of spoilage is noted by absence any evidence of growth of spoilage organisms (turbidity, viable count, direct microscopic count or other standard methods of enumeration) and by the absence of any discernable change in the product attributes that could be routinely attributed to metabolism of spoilage organisms.
as §3, §5
An apple juice based beverage was prepared to contain 30 ppm EDTA (0.003%) as shown below. The beverage was divided into two aliquots. […]

[10] = 25° C., pH approximately 6.4; cited from earlier work
[11] = purportedly; cited from earlier work

MIC [2] [µg/mL] | MIC [3] [µg/mL] | MIC [4] [µg/mL] | MIC [5] [µg/mL] | MIC [7] [µg/mL] | MIC [8] [µg/mL] | solubility (physchem; 4 °C, pH 3.4, aqueous buffer, thermodynamic from solid) [µg/mL] | solubility at 24 h (physchem; 25 °C, pH 3.4, aqueous buffer, thermodynamic from solid) [µg/mL] | solubility limit in high acid beverage (physchem; pH 3.4) [ppm] | SMILES | concentration required to stabilize beverage for 16 weeks against vegetative yeast, mold and bacteria (bio-indicator mold [1]) | MIC [6] [µg/mL] | mold able to grow at highest concentration in solution (bio-indicator mold [9]; 20.0 ppm un-complexed Pimaricin, apple juice beverage pH 3.4) [%] | minimum initial stand alone concentration needed to preserve product for 16 weeks (bio-indicator mold [9]; stand alone) [mg pimaricin per liter] | solubility in pure water [10] [µg/mL] | pKa of carboxylic acid group [11]
– | – | – | – | – | – | – | – | – | COC(=O)OC(=O)OC [DMDC, Dimethyl dicarbonate] | at least 250 mg/liter | – | – | – | – | –
18.4 (≈ 27.6 µM) | 5.7 (≈ 8.56 µM) | 10.3 (≈ 15.5 µM) | 16.9 (≈ 25.4 µM) | > 20 | > 20 | 10 (≈ 15 µM) | 20 (≈ 30 µM) | ~10 | CC1O[C@@H](O[C@H]2/C=C/C=C/C=C/C=C/C[C@@H](C)OC(=O)/C=C/[C@H]3O[C@@H]3C[C@H](O)C[C@]3(O)C[C@H](O)[C@@H](C(=O)O)[C@H](C2)O3)C(O)C(N)[C@@H]1O (stereo partly drawn) [Pimaricin] | – | > 20 | > 50 | 400 | 52 (≈ 78.1 µM) | ~6.5
